This is an account of results in US5698710A, “Tachykinins antagonists” (A. Menarini Industrie Farmaceutiche Riunite S.r.l., priority 1994, dated 1997).

Structures are written as SMILES.

The target in this assay is T1, NK1 receptors (Homo sapiens, UniProt P25103).
T1 construct: endogenous in cells; host or cells: IM9 cells (intact)
Put plainly: [^3 H]SP Binding Assay in IM9 Cell Line (competition). The note with it: for Ki: read-out: Affinity (pKi) in the IM9 binding test (converted); for Affinity (pKi) in the IM9 binding test: intact IM9 cells, 0.3 nM [^3 H]SP, 60' at room temperature, pH 7.5. How it is done: The evaluation of the antagonist acivity of NK1 receptors was performed with binding and functional tests.
The assay was carried out on intact cells as described by Payan et al. (1984). The cells were washed with buffer A at pH 7.5 containing (in mM) Tris-HCl 50, NaCl 150 and 0.02% BSA, thereafter were resuspended in a dosage buffer (buffer A added with protease inhibitors), concentration 1×10^7 cells/ml. […] The non-specific binding was calculated in the presence of […] of non-radioactive SP. The dosage mixture was poured in test tubes for microcentrifugation which were preadsorbed in a solution of BSA 0.5% for at least 3 hours. […] The affinity was measured as pKi.

T1 sequence (P25103 whole entry): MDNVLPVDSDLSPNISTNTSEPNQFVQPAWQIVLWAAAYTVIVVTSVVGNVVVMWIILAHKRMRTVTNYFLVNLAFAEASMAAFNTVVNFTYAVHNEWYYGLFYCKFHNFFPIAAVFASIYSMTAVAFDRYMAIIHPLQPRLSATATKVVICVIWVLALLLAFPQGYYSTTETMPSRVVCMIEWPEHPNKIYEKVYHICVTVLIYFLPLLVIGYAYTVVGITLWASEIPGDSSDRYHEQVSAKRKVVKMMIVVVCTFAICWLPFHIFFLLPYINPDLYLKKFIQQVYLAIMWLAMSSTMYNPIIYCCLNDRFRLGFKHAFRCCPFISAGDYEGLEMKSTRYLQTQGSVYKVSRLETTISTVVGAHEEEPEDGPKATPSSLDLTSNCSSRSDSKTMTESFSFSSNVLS

On to `CN(Cc1ccccc1)C(=O)[C@H](Cc1ccc2ccccc2c1)NC(=O)C1(NC(=O)c2c[nH]c3ccccc23)CCCCC1` [Example, N^α [N-(1(H)indol-3-yl-carbonyl)-1-amino-cyclohexan-carbonyl]-L-2-naphthylalanine-N-methyl-N-benzylamide], for which the Ki was 1 nM. `COc1ccc(CC(NC(=O)C2(NC(=O)c3c[nH]c4ccccc34)CCCCC2)C(=O)N(C)Cc2ccccc2)cc1` (centres unmarked) [N-[N(1(H)indol-3-yl-carbonyl)-1-amino-cyclohexancarbonyl]-4-methoxyphenylalanine-N-methyl-N-benzylamide]: the Ki is 3.98 nM. `CN(Cc1ccccc1)C(=O)C(Cc1ccc([N+](=O)[O-])cc1)NC(=O)C1(NC(=O)c2c[nH]c3ccccc23)CCCCC1` (centres unmarked) [N-[N(1(H)indol-3-yl-carbonyl)-1-amino-cyclohexancarbonyl]-4-nitrophenylalanine-N-methyl-N-benzylamide]: the Ki is 20 nM.

Consider `CN(Cc1ccccc1)C(=O)C(Cc1ccccc1)NC(=O)C1(NC(=O)c2c[nH]c3ccccc23)CCCCC1` (centres unmarked) [N-[N(1(H)indol-3-yl-carbonyl)-1-amino-cyclohexancarbonyl]-phenylalanine-N-methyl-N-benzylamide], for which the Ki was 178 nM. `CN(Cc1ccccc1)C(=O)C(Cc1ccc(O)cc1)NC(=O)C1(NC(=O)c2c[nH]c3ccccc23)CCCCC1` (centres unmarked) [N-[N(1(H)indol-3-yl-carbonyl)-1-amino-cyclohexancarbonyl]-tyrosine-N-methyl-N-benzylamide]: the Ki was 20 nM.

On to `CN(Cc1ccccc1)C(=O)C(Cc1ccc2ccccc2c1)NC(=O)C1(NC(=O)c2c[nH]c3ccccc23)CCCC1` (centres unmarked) [N-[N(1(H)indol-3-yl-carbonyl)-1-amino-cyclopentancarbonyl]-2-(2-naphthyl)alanine-N-methyl-N-benzylamide], for which the Ki is 2.51 nM.

With `COc1ccc(CC(NC(=O)C2(NC(=O)c3c[nH]c4ccccc34)CCCC2)C(=O)N(C)Cc2ccccc2)cc1` (centres unmarked) [N-[N(1(H)indol-3-yl-carbonyl)-1-amino-cyclopentancarbonyl]-4-methyoxyphenylalanine-N-methyl-N-benzylamide], the Ki is 794 nM. Consider `CN(Cc1ccccc1)C(=O)C(Cc1ccccc1)NC(=O)C1(NC(=O)c2c[nH]c3ccccc23)CCCC1` (centres unmarked) [N-[N(1(H)indol-3-yl-carbonyl)-1-amino-cyclopentancarbonyl]-phenylalanine-N-methyl-N-benzylamide], for which the Ki was 158 nM. On the same count and under the same terms, the figure for `CN(Cc1ccccc1)C(=O)C(Cc1ccc2ccccc2c1)NC(=O)C1(NC(=O)c2c[nH]c3ccccc23)CCNCC1` (centres unmarked) [N-[N(1(H)indol-3-yl-carbonyl)-4-amino-piperidin-4-carbonyl]-2-(2-naphthyl)alanine-N-methyl-N-benzylamide] is 12.6 nM; for `CN(Cc1ccccc1)C(=O)C(Cc1ccc2ccccc2c1)NC(=O)C1(NC(=O)c2c[nH]c3ccccc23)CCSCC1` (centres unmarked) [N-[N(1(H)indol-3-yl-carbonyl)-4-amino-tetrahydrothiopyran-4-carbonyl]-2-(2-naphthyl)alanine-N-methyl-N-benzylamide] it is 5.01 nM; for `CN(Cc1ccccc1)C(=O)C(Cc1ccc2ccccc2c1)NC(=O)C1(NC(=O)c2cn(C)c3ccccc23)CCCCC1` (centres unmarked) [N-[N(1(methyl)indol-3-yl-carbonyl)-1-amino-cyclohexancarbonyl]-2-)2-naphthyl)alanine-N-methyl-N-benzylamide] it is 15.8 nM. In the case of `CN(Cc1ccccc1)C(=O)C(Cc1ccc2ccccc2c1)NC(=O)C1(NC(=O)c2ccc(Cl)c(Cl)c2)CCCCC1` (centres unmarked) [N-[N(3,4-dichloro-benzoyl)-1-amino-cyclohexancarbonyl]-2-(2-naphthyl)alanine-N-methyl-N-benzylamide], the Ki is 7.94 nM. Consider `CN(Cc1ccccc1)C(=O)C(Cc1ccc2ccccc2c1)NC(=O)C1(NC(=O)c2ccc(Cl)cc2)CCCCC1` (centres unmarked) [N-[N(4-chloro-benzoyl)-1-amino-cyclohexancarbonyl]-2-(2-naphthyl)alanine-N-methyl-N-benzylamide], for which the Ki is 10 nM. Regarding `COc1ccc(C(=O)NC2(C(=O)NC(Cc3ccc4ccccc4c3)C(=O)N(C)Cc3ccccc3)CCCCC2)cc1` (centres unmarked) [N-[N(4-methoxy-benzoyl)-1-amino-cyclohexancarbonyl]-2-(2-naphthyl)alanine-N-methyl-N-benzylamide], the Ki is 20 nM.

For the molecule `CN(Cc1ccccc1)C(=O)C(Cc1ccc2ccccc2c1)NC(=O)C1(NC(=O)c2ccc([N+](=O)[O-])cc2)CCCCC1` (centres unmarked) [N-[N(4-nitro-benzoyl)-1-amino-cyclohexancarbonyl]-2-(2-naphthyl)alanine-N-methyl-N-benzylamide], the Ki was 5.01 nM.

For `CN(Cc1ccccc1)C(=O)C(Cc1ccc2ccccc2c1)NC(=O)C1(NC(=O)c2cc3ccccc3o2)CCCCC1` (centres unmarked) [N-[N(benzofuran-2-yl-carbonyl)-1-aminocyclohexancarbonyl]-2-(2-naphthyl)alanine-N-methyl-N-benzylamide], the Ki is 44.7 nM. For `CN(Cc1ccccc1)C(=O)C(Cc1ccc2ccccc2c1)NC(=O)C1(NC(=O)c2ccccc2)CCCCC1` (centres unmarked) [N-[N(benzoyl)-1-amino-cyclohexancarbonyl]-2-(2-naphthyl)alanine-N-methyl-N-benzylamide], the Ki was 15.8 nM. In the case of `O=C(Cc1ccccc1)NC(Cc1ccc2ccccc2c1)NC(=O)C1(NC(=O)c2c[nH]c3ccccc23)CCCCC1` (centres unmarked) [ii, 1-[N(1(H)indol-3-yl-carbonyl)-1-amino-cyclohexancarbonyl]-amino-1[N-(2-phenylacetyl)amino]-2-(2-naphthyl)ethane], the Ki was 15.8 nM. Regarding `CN(Cc1ccccc1)C(=O)C(Cc1ccc2ccccc2c1)NC(=O)C1(N(C)C(=O)c2cn(C)c3ccccc23)CCCCC1` (centres unmarked) [xii, N-[N(1(methyl)indol-3-yl-carbonyl)-N-methyl-1-amino-cyclohexancarbonyl]-2 naphthylalanine-N-methyl-N-benzylamide], the Ki is 15.8 nM.

`CN(Cc1ccccc1)C(=O)C(Cc1ccc2ccccc2c1)NC(=O)C1(NC(=O)c2c[nH]c3ccccc23)CCC(O)CC1` (stereo not drawn) [xviii, N-[N(1(H)indol-3-yl-carbonyl)-1-amino-cis-4-hydrohy-cyclohexancarbonyl]-2-(2-naphthyl)alanine-N-methyl-N-benzylamide]: the “Affinity (pKi) in the IM9 binding test” value is reported as 8.3.

As to `COCCOCOC1CCC(NC(=O)c2c[nH]c3ccccc23)(C(=O)NC(Cc2ccccc2)C(=O)N(C)Cc2ccccc2)CC1` (stereo not drawn) [xxv, N-[N(1(H)indol-3-yl-carbonyl)-1-amino-cis-4-methoxyethoxymethoxyl-cyclohexancarbonyl]-phenylalanine-N-methyl-N-benzylamide], the “Affinity (pKi) in the IM9 binding test” value came to 7.6. Turning to `CN(Cc1ccccc1)C(=O)C(Cc1ccc2ccccc2c1)NC(=O)C1(NC(=O)c2c[nH]c3ccccc23)CCOCC1` (centres unmarked) [xxvii, N-[N(1(H)indol-3-yl-carbonyl)-4-amino-tetrahydropyran-4-carbonyl]-2-naphthylalanine-N-methyl-N-benzylamide], the Ki was 6.31 nM. On to `CN(C(=O)Cc1ccccc1)C(Cc1ccc2ccccc2c1)NC(=O)C1(NC(=O)c2c[nH]c3ccccc23)CCNCC1` (centres unmarked) [xxviii, 1-N-[N(1(H)indol-3-yl-carbonyl)-4-amino-piperidin-4-carbonyl]-amino-1-[N(methyl)-N-(2-phenylacetyl)]amino-2-(2-naphtyl)ethane], for which the Ki was 12.6 nM.
